# Laboratory results: patent US11207285B2, “Diabetes treatment regimens using alpha, alpha-substituted long-chain amphipathic carboxylates” (SYNDROMEX LTD., priority 2016, dated 2021)
# What was measured:
# [1] = system: fully differentiated 3T3L1 adipocytes; assay: glucose uptake in 3T3L1 adipocytes; format: cell-based; conditions: insulin as positive control
# Method: (§1) The compound 2,2,15,15-tetramethylhexadecane-1,16-dioic acid (also designated M16αα), and also the compounds […] (M18αα) and 2,2,19,19-tetramethyl-[…]-1,20-dioic acid (M20αα), were tested for their effect on glucose uptake and production, and the expression of glucose- and lipid-related genes in in vitro models. […] Inhibition of glucose production was tested in HepG2 human liver cells.
# HepG2 human liver cells = assay: inhibition of glucose production in HepG2 cells; format: cell-based
# Method: as §1
# [2] = system: genes that control liver gluconeogenesis and lipid synthesis; assay: expression of glucose- and lipid-related genes in in vitro models; format: cell-based
# Method: as §1
# [3] = system: C57BL/KsJ (db/db) Spontaneous T2D mice; assay: glucose lowering effect in db/db mice; format: in vivo; conditions: once daily oral 30 mg/kg
# Method: In addition, the glucose lowering effect of the above three compounds M16αα, M18αα and M20αα was tested in C57BL/KsJ (db/db) Spontaneous T2D mice, which serve as a model for T2D. These animals are characterized by hyperphagia, obesity, hyperglycemia and insulin resistance. The mice were treated once daily by oral administration of the tested compound at 30 mg/kg.
# half-life in humans = format: in vivo
# Excerpt: The half-life (T1/2) of Medica compounds in humans differs considerably from their half-life in model animals. […] This difference in half-life could not be expected, and is of considerable significance when designing a new treatment protocol for humans.
# [4] = system: Type 2 Diabetes Mellitus (T2D) patients; assay: 4-week M16αα study in T2D patients, safety and tolerability; format: in vivo, human; conditions: 40 mg/day oral, 28 days
# Method: T2D patients, non-treated or treated with SoC antidiabetic drugs as outlined below, were screened for eligibility (inclusion/exclusion according to criteria detailed below), followed by being randomly allocated to receive once daily either add-on M16αα (40 mg M16αα plus 130 mg microcrystalline cellulose in gelatin capsules) or add-on placebo (130 mg microcrystalline cellulose in gelatin capsules), in addition to the SoC anti-diabetic treatment they have been receiving regularly. One patient was not under SoC anti-diabetic drug treatment. Sixteen (16) patients were randomized to M16αα treatment and 3 patients were randomized to placebo treatment. Patients randomized to M16αα treatment were dosed for 28 days with add-on M16αα in double-blinded manner, followed by 4-week recovery period using add-on placebo in a single-blinded manner. Patients randomized to placebo treatment were dosed for 28 days with add-on placebo in double-blinded manner.
# The primary safety endpoint was the frequency, severity, and duration of adverse events (AEs), including clinically significant laboratory abnormalities after administration of M16αα.
# Safety was evaluated on the basis of the following assessments: Adverse events (AEs)—continuous (starting from informed consent signature until end of study); vital signs; 12-lead ECG; physical examination; safety laboratory evaluations (blood and urine). […]
structure (smiles),measurement,setting,value
"CC(C)(CCCCCCCCCCCCC(C)(C)C(=O)O)C(=O)O [M16αα, 2,2,15,15-tetramethyl-hexadecane-1,16-dioic acid]",glucose uptake,[1],increase glucose uptake
same,hepatic glucose production,HepG2 human liver cells,significant or full inhibition
same,expression of genes that control liver gluconeogenesis and lipid synthesis,[2],effective in inhibiting
same,blood glucose levels,[3],significantly decrease
same,serum insulin levels,[3],significantly decrease
same,serum triglyceride levels,[3],significantly decrease
same,half-life (T1/2),half-life in humans,30 to 80 h
same,half-life,"half-life in humans; human, in vivo, as stated in PK evaluation, read-out: half-life",30 to 80 h
same,serious adverse events (SAE),[4],No serious adverse events (SAE) were recorded
same,tolerability and safety,[4],well tolerated and safe
